Measurements reported in BindingDB's records for doi:10.1016/j.ejmech.2014.11.047 (Dongguk University-Seoul, 2015).

Biological target: Hypoxia-inducible factor 1-alpha (Homo sapiens, UniProt Q16665)
Test: Inhibition of HIF-1alpha in human Hep3B cells cotransfected with pGL3-HRE-luciferase plasmid after 24 hrs by dual-luciferase reporter assay

Hypoxia-inducible factor 1-alpha, sequence (Q16665 whole entry): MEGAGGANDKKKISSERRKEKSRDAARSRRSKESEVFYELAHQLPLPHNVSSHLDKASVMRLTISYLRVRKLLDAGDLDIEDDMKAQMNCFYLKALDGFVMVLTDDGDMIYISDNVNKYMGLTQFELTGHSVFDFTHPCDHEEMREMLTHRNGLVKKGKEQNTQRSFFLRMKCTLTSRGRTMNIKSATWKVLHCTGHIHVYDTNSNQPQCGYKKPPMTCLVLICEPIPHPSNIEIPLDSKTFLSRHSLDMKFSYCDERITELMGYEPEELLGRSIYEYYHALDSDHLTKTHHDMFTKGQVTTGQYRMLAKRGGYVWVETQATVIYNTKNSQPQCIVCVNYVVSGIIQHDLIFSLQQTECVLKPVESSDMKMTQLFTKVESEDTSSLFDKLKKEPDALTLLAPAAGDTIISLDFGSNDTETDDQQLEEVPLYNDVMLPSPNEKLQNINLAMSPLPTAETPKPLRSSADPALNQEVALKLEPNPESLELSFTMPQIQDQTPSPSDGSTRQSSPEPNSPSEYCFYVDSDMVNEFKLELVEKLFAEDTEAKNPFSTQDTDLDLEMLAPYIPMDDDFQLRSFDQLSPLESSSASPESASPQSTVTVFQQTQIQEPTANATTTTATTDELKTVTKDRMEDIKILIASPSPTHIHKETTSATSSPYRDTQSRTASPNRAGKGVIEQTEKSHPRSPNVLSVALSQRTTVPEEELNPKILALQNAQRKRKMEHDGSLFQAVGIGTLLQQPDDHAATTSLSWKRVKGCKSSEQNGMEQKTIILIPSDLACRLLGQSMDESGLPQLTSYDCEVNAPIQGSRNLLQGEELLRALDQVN

IC50: 0.65 nM
Compound: CC1(C)Oc2cc3oc(-c4cc(O)cc(O)c4)cc3cc2CC1O (stereo unspecified) [Moracin P]
